In patent US8343539B2, “Compounds that bind α5β1 integrin and methods of use” (Regents of the University of Minnesota, priority 2006, dated 2013):
“Also recorded” adds a separate entry of the source. Primed or numbered codes have the meaning given here. Where no end group is shown, it is not given here. [ ]: non-standard residue; d: D form. (C16)2‑Glu‑C2″ = N-terminal tail: two C16 chains, glutamic acid linker, -(CH2)2- spacer; (C16)2‑Glu‑C2 = lipid tail; Abu = CC[C@H](N)C(=O)O

Columns and labels:
HUVECs [1] = experiment: HUVEC adhesion timed experiments on LB membranes (Example 2); type: cell-based, human
Experimental: Surface preparation: Each peptide-amphiphile was used to form homogenous LB membranes as in previous work (Kokkoli Langmuir 2004; 20:2397-2404), except that both the water and 15 mm mica disks used had been autoclaved for sterility. All depositions were done at a surface pressure between 41 and 47 mN/m, well below the collapse pressure and in the liquid-condensed or solid phase. Approximately 90 minutes before cells were seeded on the LB films to begin cell adhesion experiments, mica surfaces were transferred into 1× phosphate buffered saline (PBS), with particular care taken to ensure films were not exposed to air. After 5-10 minutes of equilibration, surfaces were transferred into 24-well plates containing a supplemented MCDB-131 basal media (Sigma), as described in Example 1. Following surface transfer, 24-well plates were moved to a 37° C., 5% CO2 incubator for 45-60 minutes. As a control, 22 mm diameter human fibronectin-coated coverslips (BD Biosciences), referred to as FN, were put into 12-well plates, covered with 2 ml of the supplemented media, and also incubated for 45-60 minutes.
Cell culture: Human umbilical vein endothelial cells, HUVECs (Cambrex Corporation), were cultured as described previously (see Example 1). Only cells from passage 3 were used in all studies.
Cell adhesion experiments: Flasks of HUVECs with at least 90% confluency were washed with 1×PBS, trypsinized with 0.25% Trypsin-EDTA (Fisher Scientific), and neutralized with 2% fetal bovine serum in MCDB-131 basal media. The suspended cells from all flasks were placed in one 50 ml centrifuge tube and centrifuged at 1000 rpm for 5 minutes. The media was removed and the cell pellet was resuspended in the supplemented media described above. A hemocytometer was used to count the cells and then 497 cells/mm^2 were seeded onto both LB and FN surfaces. Surfaces were incubated with cells at 37° C., 5% CO2 for 1, 4, or 12 hours. Cell adhesion following these times was determined using the CyQuant cell proliferation assay kit (Molecular Probes), which measures the fluorescence of a cellular nucleic acid-binding dye using the SpectraMAX GeminiXS plate reader (Molecular Devices). Standard calibration curves were created within each experiment for both 12- and 24-well plates.

HUVECs [2] = experiment: HUVEC adhesion on LB membranes of peptide-amphiphiles (Example 1); type: cell-based, human; conditions: 1-72 hours, no serum
Excerpt: Surface preparation: Peptide-amphiphiles, listed in Table 1, were synthesized as described in the literature (Berndt et al., J. Am. Chem. Soc., 1995; 117:9515-9522). Langmuir-Blodgett (LB) membranes constructed from peptide-amphiphiles were deposited onto 15 mm mica disks as described elsewhere (Kokkoli et al., Langmuir, 2004; 20:2397-2404). Shortly before cell assays, the LB films were transferred into 24-well plates containing 1× phosphate buffered saline (PBS) solution (Mediatech), without exposing surfaces to air, as they rearrange to form multilayers (Hansma et al., Method. Cell Biol., 2002; 69:163-193). After equilibrating for 5-10 minutes, PBS was exchanged with 1 ml of MCDB-131 basal media (Sigma) supplemented with 0.1% bovine serum albumin (BSA) (Sigma) and antibiotics (Sigma) (2.5 μg/ml gentamicin, 2.5 μg/ml amphotericin B, 50 U/ml penicillin, and 50 μg/ml streptomycin), referred to as 0.1% BSA media. Surfaces were equilibrated at 37° C., 5% CO2 for 30-60 minutes before adding the cells. Human fibronectin-coated round coverslips (FN) 22 mm in diameter (BD Biosciences) were put into 12-well plates and 2 ml of 0.1% BSA media was added to each well. Surfaces were equilibrated for 30-60 minutes at 37° C., 5% CO2.
Cell culture: Human umbilical vein endothelial cells, HUVECs, (Cambrex Corporation) were cultured in MCDB-131 containing 20% fetal bovine serum (FBS) (Atlas Biologicals) at 37° C., 5% CO2. Other nutrients and antibiotics supplementing the media were added based on an optimal HUVEC proliferation study (Terramani et al., In Vitro Cell Dev. Biol.—Animal, 2000; 36:125-132). Media was changed in the culture flasks every other day. Cells used for adhesion and imaging studies were in passages 3-4.
Cell adhesion experiments: After cells became 90% confluent they were washed with PBS, trypsinized with 0.25% Trypsin-EDTA (Cambrex Corporation), neutralized with MCDB-131 with 2% FBS, and spun at 1000 rpm for 10 minutes. The supernatant was removed and the cell pellet was resuspended in 0.1% BSA media. Cells were counted with a hemocytometer and seeded onto LB and FN surfaces at a density of 497 cells/mm^2. Surfaces were incubated with cells in 0.1% BSA media at 37° C., 5% CO2, for 1, 4, 12, 24, 48, and 72 hours. Cell adhesion was quantified using the CyQuant Cell Proliferation Assay Kit, with a dye that binds to cellular nucleic acids, following the manufacturer's protocol (Molecular Probes). A calibration standard curve was created for each experiment. The plates were read on a SpectraMAX GeminiXS (Molecular Devices).

HUVECs [3] = experiment: HUVEC spreading on substrates (cell area); type: cell-based, human; conditions: for HUVEC spreading (cell area): 1-24 hours; for HUVEC spreading, rank among surfaces: all times examined, 1-72 hours
Experimental: (§1) Cell spreading and fibronectin production experiments: Surface transferring, cell seeding, and incubation were done in the same manner as in the adhesion experiment, with a cell density of 497 cells/mm^2, and incubation times of 1, 12, 24, 48, and 72 hour. At the end of each incubation, the surfaces were removed, washed with […] of PBS, and fixed in 1 ml of 4% paraformaldehyde (Sigma) in PBS for 15 minutes at 37° C., 5% CO2. After washing with PBS, surfaces were first labeled for secreted fibronectin: surfaces were subjected to a blocking solution (0.1% BSA in PBS) for 30 minutes, incubated for 1 hour with a primary antibody specific for secreted fibronectin (mouse anti-human fibronectin (P1H11) monoclonal antibody (Chemicon Int.) at a 1:500 dilution in blocking solution, and then for 45 minutes with a secondary antibody (IgG fluorescein (FITC) conjugated antibody; Chemicon Int.) at a 1:200 dilution in PBS. As a final step, cell membranes and nuclei were stained using the Image-iT™ LIVE Plasma Membrane and Nuclear Labeling Kit following the manufacturer's protocol for labeling fixed cells (Molecular Probes). After final washing, surfaces were mounted onto glass slides and stored at 4° C. protected from light. An inverted fluorescent microscope (Nikon Eclipse TE200 with Pixcell II LCM) was used for imaging. Fibronectin production was assessed visually, by comparing 10-20 fluorescence images from two samples for each substrate (two independent experiments performed at different days). Cell spreading was quantified from two samples per substrate (two independent experiments performed at different days) by measuring cell area with the NIH imaging software.

HUVECs [4] = experiment: Actin cytoskeleton and focal adhesion staining; type: cell-based, human; conditions: for Actin fibers and focal adhesion points: 12 hours
Experimental: Actin cytoskeleton and focal adhesion staining: Surface transferring, cell seeding, incubation, and fixing were done as described above. Staining for the actin cytoskeleton, focal adhesions, and nucleus of attached cells was done using the Actin Cytoskeleton and Focal Adhesion Staining Kit following the manufacturer's protocol (Chemicon Int.) and using 1:350 dilution for anti-vinculin antibody, 1:200 for the secondary antibody, approximately 1:1000 dilution (equivalent to 1 unit/surface) for TRITC-conjugated phalloidin and 1:1000 for DAPI. After washing, surfaces were mounted onto glass slides and stored at 4° C. protected from light. A confocal microscope (BIORAD Multiphoton Confocal 1024) was used for imaging.

HUVECs [5] = experiment: Extracellular fibronectin production by HUVECs (Example 1); type: cell-based, human; conditions: for Fibronectin production by adhered HUVECs: 12 and 24 hours; for Fibronectin secretion by adhered HUVECs: after 48 hours
Experimental: as §1

HUVECs [6] = experiment: Fibronectin production staining (Example 2); type: cell-based, human; conditions: 12 hours
Experimental: Fibronectin production staining: Surface preparation, transfer, and cellular work were all done as described in the previous methods. Only surfaces incubated with cells for 12 hours were stained. The staining protocol, involving a primary antibody for secreted fibronectin (Chemicon), a FITC-conjugated secondary antibody (Chemicon), and the Image-iT LIVE plasma membrane and nuclear labeling kit (Molecular Probes), was done as previously described in Example 1. A single photon confocal microscope (Olympus FluoView FV1000) was used for imaging. Two slides per substrate were prepared each during 2 separate experiments and each slide was imaged 2-4 times. The final images chosen were all taken from one experiment for consistency, but were representative of the images obtained from both experiments.

integrin αvβ3 = target: T1, integrin αvβ3 (Homo sapiens, UniProt P05106+P06756); experiment: Adhesion blocking with anti-integrin αvβ3 antibody (LM609); type: cell-based; conditions: anti-αvβ3 antibody 20 μg/ml, 1 hour, HUVECs 249 cells/mm^2
T1 construct: HUVECs were prepared and counted as described in the cell adhesion protocol; endogenous in cells; host or cells: HUVEC (human umbilical vein endothelial cells)
Experimental: Adhesion blocking experiments: Blocking experiments were done using mouse anti-human integrin as (P1D6), β1 (P5D2), α5β1 (JBS5), and αvβ3 (LM609) monoclonal antibodies (Chemicon Int.). All surfaces were transferred to 24- or 12-well plates and pre-incubated in 0.1% BSA media as described above. HUVECs were prepared and counted as described in the cell adhesion protocol. Cells were blocked by mixing the cell suspension with the appropriate antibody in 0.1% BSA media, and incubating for 30 minutes at 37° C., 5% CO2 with constant agitation. Blocked cells were then released onto LB and FN surfaces and allowed to adhere for 1 hour at 37° C., 5% CO2. […] Following incubation, surfaces were washed, and adhered cells were quantified as described in the cell adhesion protocol.

[7] = target: T2, mouse α5β1 integrin on CT26.WT cells (mouse, UniProt P11688 45-1053; P09055 21-798); experiment: flow cytometry, liposomes on CT26.WT cells, 4 °C, 3 hrs
T2 construct: whole, on cells; Endogenous on mouse colon carcinoma cells; also called integrin α5β1 expressing CT26.WT cells

[8] = target: T2, mouse α5β1 integrin on CT26.WT cells; experiment: flow cytometry, PR_b stealth liposomes on CT26.WT cells, 4 °C, 3 hrs
Experimental: Tubes were incubated at 4° C. or 37° C. over a rotary shaker for the specified duration of time. Cells were then pelleted and washed twice in FB. Flow cytometric analysis was carried out immediately. For peptide blocking experiments, the protocol specified above was used except cells were incubated with 200 µg/ml of free peptide-amphiphile in FB for one hour prior to incubating the cells with the liposomes. […] All experiments were repeated twice but results are presented from a single experiment.

T2 sequence (P11688 45-1053, chain 1 of 2): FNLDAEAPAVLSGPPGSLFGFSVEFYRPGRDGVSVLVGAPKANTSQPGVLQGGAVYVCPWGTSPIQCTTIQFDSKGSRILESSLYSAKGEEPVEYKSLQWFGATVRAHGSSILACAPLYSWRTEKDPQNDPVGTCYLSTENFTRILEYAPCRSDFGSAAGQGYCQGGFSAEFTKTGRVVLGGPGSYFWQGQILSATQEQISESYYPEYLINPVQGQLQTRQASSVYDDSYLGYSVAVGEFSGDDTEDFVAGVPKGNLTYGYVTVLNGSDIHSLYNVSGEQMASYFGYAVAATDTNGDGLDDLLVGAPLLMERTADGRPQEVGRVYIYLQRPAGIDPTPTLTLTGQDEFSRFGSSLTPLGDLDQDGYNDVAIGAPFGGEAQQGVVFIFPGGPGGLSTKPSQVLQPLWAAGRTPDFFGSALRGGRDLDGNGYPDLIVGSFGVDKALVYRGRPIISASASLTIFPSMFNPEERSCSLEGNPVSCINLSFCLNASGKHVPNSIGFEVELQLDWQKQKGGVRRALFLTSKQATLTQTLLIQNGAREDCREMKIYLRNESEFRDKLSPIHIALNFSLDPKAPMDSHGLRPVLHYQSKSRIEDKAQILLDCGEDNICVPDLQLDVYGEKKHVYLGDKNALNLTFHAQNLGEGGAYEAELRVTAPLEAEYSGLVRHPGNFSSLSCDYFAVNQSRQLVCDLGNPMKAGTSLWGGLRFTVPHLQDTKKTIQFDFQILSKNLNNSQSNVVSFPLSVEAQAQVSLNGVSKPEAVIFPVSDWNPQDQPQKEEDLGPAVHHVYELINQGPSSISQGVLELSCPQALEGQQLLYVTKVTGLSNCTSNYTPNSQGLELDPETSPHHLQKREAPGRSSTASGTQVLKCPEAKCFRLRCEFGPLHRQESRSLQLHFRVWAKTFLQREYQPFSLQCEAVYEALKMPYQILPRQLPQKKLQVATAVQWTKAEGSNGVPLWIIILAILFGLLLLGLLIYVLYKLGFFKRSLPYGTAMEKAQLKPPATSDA
T2 sequence (P09055 21-798, chain 2 of 2): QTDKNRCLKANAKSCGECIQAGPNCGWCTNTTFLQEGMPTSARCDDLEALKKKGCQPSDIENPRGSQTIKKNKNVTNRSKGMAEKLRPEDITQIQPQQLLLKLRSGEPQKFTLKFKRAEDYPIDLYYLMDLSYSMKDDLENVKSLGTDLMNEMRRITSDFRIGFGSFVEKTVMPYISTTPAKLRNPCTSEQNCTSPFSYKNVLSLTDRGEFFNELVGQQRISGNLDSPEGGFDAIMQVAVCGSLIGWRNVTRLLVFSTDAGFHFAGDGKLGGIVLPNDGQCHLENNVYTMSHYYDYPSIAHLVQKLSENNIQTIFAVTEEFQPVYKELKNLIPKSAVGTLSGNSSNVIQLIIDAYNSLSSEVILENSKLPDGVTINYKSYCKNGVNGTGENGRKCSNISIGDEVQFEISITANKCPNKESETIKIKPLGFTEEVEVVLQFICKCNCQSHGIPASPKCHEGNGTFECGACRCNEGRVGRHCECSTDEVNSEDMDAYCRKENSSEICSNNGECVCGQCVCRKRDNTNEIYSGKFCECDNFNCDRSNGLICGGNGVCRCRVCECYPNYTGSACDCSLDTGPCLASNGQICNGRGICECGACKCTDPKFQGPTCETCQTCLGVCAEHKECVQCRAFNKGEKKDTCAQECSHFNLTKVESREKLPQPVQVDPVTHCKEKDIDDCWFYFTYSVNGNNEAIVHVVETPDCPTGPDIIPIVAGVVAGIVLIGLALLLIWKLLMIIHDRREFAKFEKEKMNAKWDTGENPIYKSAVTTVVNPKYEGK
T1 sequence (P06756 31-889 limits assumed): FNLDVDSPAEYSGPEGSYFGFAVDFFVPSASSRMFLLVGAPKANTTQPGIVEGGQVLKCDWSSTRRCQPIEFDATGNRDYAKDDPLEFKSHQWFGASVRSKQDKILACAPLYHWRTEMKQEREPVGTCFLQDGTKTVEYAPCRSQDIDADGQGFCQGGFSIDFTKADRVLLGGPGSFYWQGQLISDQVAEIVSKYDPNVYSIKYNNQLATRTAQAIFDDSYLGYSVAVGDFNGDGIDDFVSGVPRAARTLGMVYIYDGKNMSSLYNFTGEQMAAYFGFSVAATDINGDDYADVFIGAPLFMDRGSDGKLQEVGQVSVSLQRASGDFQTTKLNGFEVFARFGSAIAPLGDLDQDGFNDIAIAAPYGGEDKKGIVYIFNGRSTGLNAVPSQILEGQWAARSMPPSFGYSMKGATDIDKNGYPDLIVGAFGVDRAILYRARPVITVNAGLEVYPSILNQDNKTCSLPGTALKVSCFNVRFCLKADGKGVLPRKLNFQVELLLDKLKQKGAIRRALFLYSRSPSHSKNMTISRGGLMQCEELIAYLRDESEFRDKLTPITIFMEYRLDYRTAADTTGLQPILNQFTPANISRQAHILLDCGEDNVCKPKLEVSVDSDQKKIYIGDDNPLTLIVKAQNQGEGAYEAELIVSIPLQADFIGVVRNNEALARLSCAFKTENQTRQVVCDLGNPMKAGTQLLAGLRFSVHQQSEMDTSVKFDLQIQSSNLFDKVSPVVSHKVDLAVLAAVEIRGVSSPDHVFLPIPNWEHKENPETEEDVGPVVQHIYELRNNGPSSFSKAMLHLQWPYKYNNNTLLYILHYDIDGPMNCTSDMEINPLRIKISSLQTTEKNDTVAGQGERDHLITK
T1 sequence (P06756 891-1048 partner limits assumed): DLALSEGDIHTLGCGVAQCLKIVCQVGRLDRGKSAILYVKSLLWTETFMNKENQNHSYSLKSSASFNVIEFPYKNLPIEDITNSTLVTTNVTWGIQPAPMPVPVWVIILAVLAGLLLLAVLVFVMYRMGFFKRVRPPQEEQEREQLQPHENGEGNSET
T1 sequence (P05106 27-788): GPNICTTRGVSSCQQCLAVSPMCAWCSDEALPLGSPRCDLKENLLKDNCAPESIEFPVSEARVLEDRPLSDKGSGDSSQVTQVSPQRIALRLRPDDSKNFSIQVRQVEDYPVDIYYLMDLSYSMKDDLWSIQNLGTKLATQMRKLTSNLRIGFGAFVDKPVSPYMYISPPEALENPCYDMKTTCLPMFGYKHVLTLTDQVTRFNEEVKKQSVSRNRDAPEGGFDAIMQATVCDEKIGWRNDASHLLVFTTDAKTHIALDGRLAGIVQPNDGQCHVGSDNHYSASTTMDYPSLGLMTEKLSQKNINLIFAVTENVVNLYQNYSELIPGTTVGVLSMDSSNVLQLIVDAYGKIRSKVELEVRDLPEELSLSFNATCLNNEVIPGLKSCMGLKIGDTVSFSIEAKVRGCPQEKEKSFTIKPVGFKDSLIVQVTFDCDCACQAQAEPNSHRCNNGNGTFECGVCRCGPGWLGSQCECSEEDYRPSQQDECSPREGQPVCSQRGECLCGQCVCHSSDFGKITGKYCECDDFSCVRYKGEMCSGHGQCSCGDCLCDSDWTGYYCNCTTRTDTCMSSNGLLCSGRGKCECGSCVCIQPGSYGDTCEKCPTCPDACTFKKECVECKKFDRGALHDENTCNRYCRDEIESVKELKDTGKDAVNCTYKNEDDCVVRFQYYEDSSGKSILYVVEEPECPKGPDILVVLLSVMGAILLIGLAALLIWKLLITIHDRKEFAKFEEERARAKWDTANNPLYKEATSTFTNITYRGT

(C16)2-Glu-C2-PHSRNSGSGSGSGSGRGDSP ({(C16)2‑Glu‑C2}-PHSRNSGSGSGSGSGRGDSP) [Pr_e]
HUVEC adhesion compared with FN, overall (HUVECs [1]; 1, 4 and 12 hours): superior cell adhesion performance; also recorded: outperformed
HUVEC adhesion compared with Pr_a, overall (HUVECs [1]; 1, 4 and 12 hours): superior cell adhesion performance; also recorded: outperformed
HUVEC adhesion compared with FN (HUVECs [1]; 1 hour): higher HUVEC adhesion
HUVEC adhesion compared with Pr_a (HUVECs [1]; 1 hour): higher HUVEC adhesion
HUVEC adhesion compared with FN (HUVECs [1]; 4 hours): higher adhesion than FN
HUVEC adhesion compared with Pr_a (HUVECs [1]; 4 hours): no statistical difference
HUVEC adhesion compared with FN (HUVECs [1]; 12 hours): statistically higher than FN
HUVEC adhesion compared with Pr_a (HUVECs [1]; 12 hours): not statistically different

(C16)2-Glu-C2-KSSPHSRNSSSSSSSSSSRGDSP ({(C16)2‑Glu‑C2}-KSSPHSRNSSSSSSSSSSRGDSP) [Pr_d]
HUVEC adhesion level (description) (HUVECs [1]; 1, 4 and 12 hours): good adhesion out to 4 hours
Maintenance / decay of HUVEC adhesion over time (HUVECs [1]; up to 12 hours): extreme drop-off at 12 hours

(C16)2-Glu-C2-PHSRNSGSGSGSGRGDSP ({(C16)2‑Glu‑C2}-PHSRNSGSGSGSGRGDSP) [PR_a]
Ability of substrate to sustain HUVEC adhesion over time (HUVECs [2]): effectively adhered
HUVEC spreading (cell area) (HUVECs [3]): mostly spread
HUVEC spreading, rank among surfaces (HUVECs [3]): third
HUVEC adhesion compared with FN (HUVECs [1]; 1 hour): no statistical difference
HUVEC adhesion compared with FN (HUVECs [1]; 4 hours): no difference in adhesion
HUVEC adhesion compared with FN (HUVECs [1]; 12 hours): statistically higher than FN

(C16)2-Glu-C2-GRGESP ({(C16)2‑Glu‑C2}-GRGESP) [negative control peptide-amphiphile]
Ability of substrate to sustain HUVEC adhesion over time (HUVECs [2]): failed to sustain cell adhesion after 48 hours
HUVEC spreading (cell area) (HUVECs [3]): smallest
Actin fibers and focal adhesion points (HUVECs [4]): no distinct actin fibers and very few focal adhesion points
Fibronectin production by adhered HUVECs (HUVECs [5]): significantly less compared to FN and PR_b
Fibronectin secretion by adhered HUVECs (HUVECs [5]): minimal fibronectin secretion

FN: Human fibronectin-coated round coverslips (BD Biosciences), positive control
HUVEC spreading (cell area) (HUVECs [3]): mostly spread
HUVEC spreading, rank among surfaces (HUVECs [3]): second
Actin stress fibers and focal contacts (HUVECs [4]; 1-72 hours): displayed actin stress fibers and focal contacts
Fibronectin secretion by adhered HUVECs (HUVECs [5]): fully covered with secreted fibronectin
Fibronectin (ECM) production by adhered HUVECs (HUVECs [6]): allow both cell adhesion and ECM production; also recorded: allowed attached cells to produce fibronectin

(C16)2-Glu-C2-GRGDSP
Ability of substrate to sustain HUVEC adhesion over time (HUVECs [2]): failed to sustain HUVEC adhesion after 48 hours; also recorded: failed to sustain cell adhesion after 48 hours
reduction in cell adhesion compared to adhesion of non-blocked cells (integrin αvβ3): 75.99±1.51%
HUVEC spreading (cell area) (HUVECs [3]): higher compared to GRGESP, but much smaller than FN
Focal adhesion contacts (vinculin) (HUVECs [4]): did not form strong focal adhesion contacts
Actin fibers and focal adhesion points (HUVECs [4]): some actin fiber formation
Actin organization (HUVECs [4]; 24 hours): actin organization became less pronounced
Fibronectin production by adhered HUVECs (HUVECs [5]): significantly less compared to FN and PR_b
Fibronectin secretion by adhered HUVECs (HUVECs [5]): minimal fibronectin secretion

B1: GRGDSP peptide-amphiphile (C16)2-Glu-C2-KAbuGRGDSPAbuK (peptide)
peptide: {(C16)2‑Glu‑C2}-K[Abu]GRGDSP[Abu]K
notes: also called GRGDSP-targeted liposomes; GRGDSP-functionalized liposomes
binding result [7]: binds

B2: PR_b peptide-amphiphile (C16)2-Glu-C2-KSSPHSRNSGSGSGSGSGRGDSP (peptide)
peptide: {(C16)2‑Glu‑C2″}-KSSPHSRNSGSGSGSGSGRGDSP
increase of binding against 2.5 mol % GRGDSP low PEG2000 liposomes [7]: ~100 fold
reduction of binding against stealth liposomes with about 2.5 mol % PR_b [8]: 10 fold
